Laboratory results: US20250230193A1, “CYCLIC COMPOUND HAVING SELECTIVE KRAS INHIBITORY EFFECT ON HRAS AND NRAS” (CHUGAI SEIYAKU KABUSHIKI KAISHA, priority 2022, published 2025)
Where a SMILES comes first, the peptide text is derived from it. Bridges are numbered along the chain shown (N, C = ends). [ ]: non-standard residue; d: D form. The star is where a group is joined. hPhe(3,5-F2-4-CF3) = N[C@@H](CCc1cc(F)c(C(F)(F)F)c(F)c1)C(=O)O; hPhe(3-Cl-4-CF3) = N[C@@H](CCc1ccc(C(F)(F)F)c(Cl)c1)C(=O)O; NPrPhe(4-CF3) = CCCN[C@@H](Cc1ccc(C(F)(F)F)cc1)C(=O)O; NMeGly(cPent) = CN[C@H](C(=O)O)C1CCCC1; NMeF = CN[C@@H](Cc1ccccc1)C(=O)O; αMeF = C[C@](N)(Cc1ccccc1)C(=O)O; NMeD = CN[C@@H](CC(=O)O)C(=O)O; NMeL = CN[C@@H](CC(C)C)C(=O)O; Morpholide = C1CN(*)CCO1; Ac5c = NC1(C(=O)O)CCCC1; Aze = O=C(O)[C@@H]1CCN1; NPrGly = CCCNCC(=O)O; NEtG = CCNCC(=O)O; Sar = CNCC(=O)O

Experiments:
[1] = molecular target: GDP-bound HRAS wild-type protein (Homo sapiens, UniProt P01112); assay: Binding to HRAS by surface plasmon resonance (SPR), Single Cycle Kinetics
[2] = molecular target: GDP-bound NRAS wild-type protein (Homo sapiens, UniProt P01111); assay: Binding to NRAS by surface plasmon resonance (SPR), Single Cycle Kinetics
Chain of GDP-bound NRAS wild-type protein (P01111 whole entry): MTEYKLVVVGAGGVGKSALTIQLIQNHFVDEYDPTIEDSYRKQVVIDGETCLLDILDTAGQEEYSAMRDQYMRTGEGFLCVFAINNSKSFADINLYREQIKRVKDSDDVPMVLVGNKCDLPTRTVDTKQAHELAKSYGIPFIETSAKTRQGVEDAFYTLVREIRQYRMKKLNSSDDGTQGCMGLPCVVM

Chain of GDP-bound HRAS wild-type protein (P01112 whole entry): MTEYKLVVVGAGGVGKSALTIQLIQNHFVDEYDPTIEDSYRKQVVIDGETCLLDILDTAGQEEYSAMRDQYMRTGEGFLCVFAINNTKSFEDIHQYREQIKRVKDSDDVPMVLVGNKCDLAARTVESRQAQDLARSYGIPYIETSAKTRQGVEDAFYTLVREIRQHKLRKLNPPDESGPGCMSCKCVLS

With CC[C@H](C)[C@@H]1NC(=O)[C@H](CC(C)C)N(CC)C(=O)C[C@@H](C(=O)N2CCOCC2)N(C)C(=O)[C@H](C2CCCC2)N(C)C(=O)C2(CCCC2)NC(=O)[C@@H]2CCCN2C(=O)[C@H](CCc2cc(F)c(C(F)(F)F)c(F)c2)NC(=O)CN(C)C(=O)[C@H](Cc2ccc(C(F)(F)F)cc2)N2CCCC[C@@H](C2=O)N(C)C(=O)CN(C)C1=O [PP0588] the “HRAS/KRAS (ratio of KD value with respect to GDP-bound HRAS wild-type protein to KD value with respect to KRAS)” value ([1]; SPR) was “B (a compound having 3 or more and less than 10 is denoted as B)” and the “NRAS/KRAS (ratio of KD value with respect to GDP-bound NRAS wild-type protein to KD value with respect to KRAS)” value ([2]; SPR) was “B (a compound having 3 or more and less than 10 is denoted as B)”.

CCCN(C)C(=O)[C@@H]1CC(=O)N(C)[C@@H](CC(F)F)C(=O)N[C@@H]([C@@H](C)CC)C(=O)N(C)CC(=O)N(C)[C@H]2C/C=C\CCN(C2=O)[C@@H](Cc2ccc(C(F)(F)F)cc2)C(=O)N(C)CC(=O)N[C@@H](CCc2cc(F)c(C(F)(F)F)c(F)c2)C(=O)N2C[C@H](OCC)C[C@H]2C(=O)NC2(CC(F)(F)C2)C(=O)N(C)[C@@H](C2CCCC2)C(=O)N1C [PP1733] was tested, and the “HRAS/KRAS (ratio of KD value for HRAS to KD value for KRAS)” value ([1]; KD ratio, GDP-bound HRAS wild-type vs GDP-bound KRAS wild-type, SPR) was “A (a compound having 10 or more and less than 20 is denoted as A)” and the “NRAS/KRAS (ratio of KD value for NRAS to KD value for KRAS)” value ([2]; KD ratio, GDP-bound NRAS wild-type vs GDP-bound KRAS wild-type, SPR) was “A (a compound having 10 or more and less than 20 is denoted as A)”.

In the case of CCCOC[C@H]1C(=O)N[C@@H]([C@@H](C)CC)C(=O)N(C)CC(=O)N(C)[C@H]2C/C=C\CCN(C2=O)[C@@H](Cc2ccc(C)cc2)C(=O)N(C)CC(=O)N[C@@H](CCc2ccc(C(F)(F)F)c(OC)c2)C(=O)N2C[C@@H](C)C[C@H]2C(=O)NC2(CC(C)(C)C2)C(=O)N(C)[C@@H](C2CCCC2)C(=O)N(C)[C@H](C(=O)N(C)CC)CC(=O)N1C [PP2461], the “HRAS/KRAS (ratio of KD value with respect to HRAS to KD value with respect to KRAS)” value ([1]; SPR, GDP-bound HRAS wild-type vs GDP-bound KRAS wild-type) is reported as “A (a compound having 10 or more and less than 20 is denoted as A)” and the “NRAS/KRAS (ratio of KD value with respect to NRAS to KD value with respect to KRAS)” value ([2]; SPR, GDP-bound NRAS wild-type vs GDP-bound KRAS wild-type) is reported as “A (a compound having 10 or more and less than 20 is denoted as A)”.

In the case of CCCN1C(=O)CN(C)C(=O)[C@@H]2CCN2C(=O)[C@H]([C@@H](C)CC)NC(=O)[C@H](CC(C)C)N(C)C(=O)C[C@@H](C(=O)N2CCOCC2)N(C)C(=O)[C@H](C2CCCC2)N(C)C(=O)[C@](C)(Cc2ccccc2)NC(=O)[C@@H]2CCCN2C(=O)[C@H](CCc2cc(F)c(C(F)(F)F)c(F)c2)NC(=O)CN(C)C(=O)[C@@H]1Cc1ccc(C(F)(F)F)cc1 [PP0778] ([NMeL]I[Aze][Sar][NPrPhe(4-CF3)][Sar][hPhe(3,5-F2-4-CF3)]P[αMeF][NMeGly(cPent)][NMeD]-Morpholide; lactam N-11), the “HRAS/KRAS (ratio of KD value with respect to GDP-bound HRAS wild-type protein to KD value with respect to KRAS)” value ([1]; SPR) is reported as “B (a compound having 3 or more and less than 10 is denoted as B)” and the “NRAS/KRAS (ratio of KD value with respect to GDP-bound NRAS wild-type protein to KD value with respect to KRAS)” value ([2]; SPR) is reported as “B (a compound having 3 or more and less than 10 is denoted as B)”.

For CCCN1CC(=O)NC2(CCCC2)C(=O)N(C)[C@@H](C2CCCC2)C(=O)N(C)[C@H](C(=O)N2CCOCC2)CC(=O)N(C)[C@@H](CC(C)C)C(=O)N[C@@H]([C@@H](C)CC)C(=O)N(CC)CC(=O)N(C)CC(=O)N(CCC)[C@@H](Cc2ccc(C(F)(F)F)cc2)C(=O)N(C)CC(=O)N[C@@H](CCc2ccc(C(F)(F)F)c(Cl)c2)C1=O [PP0301] ([NMeL]I[NEtG][Sar][NPrPhe(4-CF3)][Sar][hPhe(3-Cl-4-CF3)][NPrGly][Ac5c][NMeGly(cPent)][NMeD]-Morpholide; lactam N-11), the “HRAS/KRAS (ratio of KD for GDP-bound HRAS wild-type to KD for KRAS)” value ([1]; SPR) was “C (A compound having a KD ratio of 0.1 or more and less than 3 is denoted as C)” and the “NRAS/KRAS (ratio of KD for GDP-bound NRAS wild-type to KD for KRAS)” value ([2]; SPR) was “B (a compound having 3 or more and less than 10 is denoted as B)”.

CC[C@H](C)[C@@H]1NC(=O)[C@H](CC(C)C)N(C)C(=O)C[C@@H](C(=O)N2CCOCC2)N(C)C(=O)[C@H](C2CCCC2)N(C)C(=O)C2(CCCC2)NC(=O)[C@@H]2CCCN2C(=O)[C@H](CCc2ccc(C(F)(F)F)c(Cl)c2)NC(=O)CN(C)C(=O)[C@H](Cc2ccccc2)N(C)C(=O)CN(C)C(=O)CN(C)C1=O [PP0039] ([NMeL]I[Sar][Sar][NMeF][Sar][hPhe(3-Cl-4-CF3)]P[Ac5c][NMeGly(cPent)][NMeD]-Morpholide; lactam N-11) was tested, and the “HRAS/KRAS (ratio of KD for GDP-bound HRAS wild-type to KD for KRAS)” value ([1]; SPR) was “C (A compound having a KD ratio of 0.1 or more and less than 3 is denoted as C)” and the “NRAS/KRAS (ratio of KD for GDP-bound NRAS wild-type to KD for KRAS)” value ([2]; SPR) was “C (A compound having a KD ratio of 0.1 or more and less than 3 is denoted as C)”.

With CCC[C@H]1C(=O)N[C@@H]([C@@H](C)CC)C(=O)N(C)CC(=O)N(C)[C@H]2C/C=C\CCN(C2=O)[C@@H](Cc2ccc(C(F)(F)F)cc2)C(=O)N(C)CC(=O)N[C@@H](CCc2ccc(C(F)(F)F)c(OC)c2)C(=O)N2CC[C@H]2C(=O)NC2(CC(C)(C)C2)C(=O)N(C)[C@@H](C(CC)CC)C(=O)N(C)[C@H](C(=O)N(C)C)CC(=O)N1C [PP2936] the “HRAS/KRAS (ratio of KD value with respect to GDP-bound HRAS wild-type protein to KD value with respect to KRAS)” value ([1]; class symbols) was “A (a compound having 10 or more and less than 20 is denoted as A)” and the “NRAS/KRAS (ratio of KD value with respect to GDP-bound NRAS wild-type protein to KD value with respect to KRAS)” value ([2]; class symbols) was “AA (a compound having 20 or more is denoted as AA)”.
